Calls of active or inactive are those of the source. No rule for the calls is given here.
Tests used:
Porphyromonas gingivalis = assay: Antibiofilm activity against Porphyromonas gingivalis ATCC 33277 assessed as inhibition of biofilm formation up to 96 ug/mL after 24 hrs by crystal violet staining based assay; format: functional, organism-based
Streptococcus mutans [1] = assay: Inhibition of planktonic growth of Streptococcus mutans ATCC 25175 up to 96 ug/mL after 24 hrs relative to control; format: organism-based
Fusobacterium nucleatum = assay: Antibiofilm activity against Fusobacterium nucleatum ATCC 25586 assessed as inhibition of biofilm formation up to 96 ug/mL after 24 hrs by crystal violet staining based assay; format: functional, organism-based
Streptococcus mutans [2] = assay: Antibiofilm activity against Streptococcus mutans ATCC 25175 assessed as inhibition of biofilm formation up to 96 ug/mL after 24 hrs by crystal violet staining-based assay; format: functional, organism-based

| Compound | inhibition (Porphyromonas gingivalis) | growth inhibition (GI) (Streptococcus mutans [1]) | inhibition (Fusobacterium nucleatum) | inhibition (Streptococcus mutans [2]) |
| --- | --- | --- | --- | --- |
| C[C@@H]1NC(=O)[C@H](Cc2ccc(OCc3ccccc3)cc2)NC1=O | inactive | Non-Toxic | inactive | inactive |
| CC(C)C[C@@H]1NC(=O)[C@H](C(C)C)NC1=O | inactive | Non-Toxic | inactive | inactive |
| CC(C)C[C@@H]1NC(=O)[C@H](COCc2ccccc2)NC1=O | inactive | Non-Toxic | inactive | inactive |
| C[C@@H]1NC(=O)[C@H](Cc2ccccc2)NC1=O | inactive | Non-Toxic | inactive | inactive |
| CC(C)C[C@@H]1NC(=O)CNC1=O | inactive | Non-Toxic | inactive | inactive |
| CC(C)[C@@H]1NC(=O)[C@H](C)NC1=O | inactive | Non-Toxic | inactive | inactive |
| NCCCC[C@@H]1NC(=O)[C@H](Cc2ccccc2)NC1=O | inactive | Non-Toxic | inactive | inactive |
| CC(C)[C@@H]1NC(=O)[C@H](Cc2ccccc2)NC1=O | inactive | Non-Toxic | inactive | inactive |
| CC(C)C[C@H]1NC(=O)[C@@H](Cc2ccccc2)NC1=O | inactive | Non-Toxic | inactive | inactive |
| CC(C)[C@@H]1NC(=O)[C@@H](Cc2ccc(OCc3ccccc3)cc2)NC1=O | inactive | Non-Toxic | inactive | inactive |
| O=C1N[C@@H](Cc2ccc([N+](=O)[O-])cc2)C(=O)N[C@H]1Cc1ccc([N+](=O)[O-])cc1 | inactive | Non-Toxic | inactive | inactive |
| C[C@H]1NC(=O)[C@@H](Cc2ccccc2)NC1=O | inactive | Non-Toxic | inactive | inactive |
| C[C@@H](OCc1ccccc1)[C@@H]1NC(=O)[C@H]([C@@H](C)OCc2ccccc2)NC1=O | inactive | Non-Toxic | inactive | inactive |
| N=C(N)NCCC[C@@H]1NC(=O)[C@H](Cc2ccc(O)cc2)NC1=O | inactive | Non-Toxic | inactive | inactive |
| CC(C)[C@@H]1NC(=O)[C@H](COCc2ccccc2)NC1=O | inactive | Non-Toxic | inactive | inactive |
| CC(C)C[C@H]1NC(=O)[C@H](C(C)C)NC1=O | inactive | Non-Toxic | inactive | inactive |
| CC(C)C[C@H]1NC(=O)[C@@H](C(C)C)NC1=O | inactive | Non-Toxic | inactive | inactive |
| C[C@@H]1NC(=O)[C@@H](C)NC1=O | inactive | Non-Toxic | inactive | inactive |
| CC(C)C[C@@H]1NC(=O)[C@H](Cc2ccccc2)NC1=O | inactive | Non-Toxic | inactive | inactive |
| O=C1[C@@H]2CCCN2C(=O)[C@H]2CCCN12 | inactive | Non-Toxic | inactive | inactive |
| O=C1N[C@@H](Cc2ccccc2)C(=O)N[C@H]1COCc1ccccc1 | inactive | Non-Toxic | inactive | inactive |
| CCC(C)[C@@H]1NC(=O)[C@H](C(C)CC)NC1=O (some centres not stated) | inactive | Non-Toxic | inactive | inactive |
| CCC(C)[C@@H]1NC(=O)[C@H](Cc2ccccc2)NC1=O (some centres not stated) | inactive | Non-Toxic | inactive | inactive |
| C[C@H]1NC(=O)[C@@H](C)NC1=O | inactive | Non-Toxic | inactive | inactive |

| Compound | inhibition (Porphyromonas gingivalis) | growth inhibition (GI) (Streptococcus mutans [1]) | inhibition (Fusobacterium nucleatum) | inhibition (Streptococcus mutans [2]) |
| --- | --- | --- | --- | --- |
| O=C1N[C@@H](COCc2ccccc2)C(=O)N[C@H]1COCc1ccccc1 | inactive | Non-Toxic | inactive | inactive |
| CC(C)C[C@@H]1NC(=O)[C@@H](Cc2ccc(OCc3ccccc3)cc2)NC1=O | inactive | Non-Toxic | inactive | inactive |
| CC(C)C[C@H]1NC(=O)[C@@H](Cc2ccc(OCc3ccccc3)cc2)NC1=O | inactive | Non-Toxic | inactive | inactive |
| O=C(NCCCC[C@@H]1NC(=O)[C@H](Cc2ccccc2)NC1=O)OCc1ccccc1 | inactive | Non-Toxic | inactive | inactive |
| O=C1N[C@H](Cc2ccccc2)C(=O)N[C@@H]1COCc1ccccc1 | inactive | Non-Toxic | inactive | inactive |
| C[C@@H]1NC(=O)[C@H](CCC(N)=O)NC1=O | inactive | Non-Toxic | inactive | inactive |
| O=C1[C@H]2CCCN2C(=O)[C@H]2CCCN12 | inactive | Non-Toxic | inactive | inactive |
| O=C(NCCCC[C@@H]1NC(=O)[C@H](CCCCNC(=O)OCc2ccccc2)NC1=O)OCc1ccccc1 | inactive | Non-Toxic | inactive | inactive |
| O=C1[C@@H]2CSCN2C(=O)[C@@H]2CSCN12 | inactive | Non-Toxic | inactive | inactive |
| CC(C)C[C@@H]1NC(=O)[C@H](CC(C)C)NC1=O | inactive | Non-Toxic | inactive | inactive |
| CC(C)C[C@@H]1NC(=O)[C@@H](C(C)C)NC1=O | inactive | Non-Toxic | inactive | inactive |
| O=C1N[C@@H](Cc2ccc(OCc3ccccc3)cc2)C(=O)N2CCC[C@@H]12 | inactive | Non-Toxic | inactive | inactive |
| CC(C)C[C@H]1NC(=O)[C@H](Cc2ccccc2)NC1=O | inactive | Non-Toxic | inactive | inactive |
| CC(C)C[C@@H]1NC(=O)[C@H](Cc2ccc(OCc3ccccc3)cc2)NC1=O | inactive | Non-Toxic | inactive | inactive |
| CC(C)C[C@@H]1NC(=O)[C@@H](CC(C)C)NC1=O | inactive | Non-Toxic | inactive | inactive |
| O=C1N[C@H](COCc2ccccc2)C(=O)N[C@@H]1COCc1ccccc1 | inactive | Non-Toxic | inactive | inactive |
| O=C1N[C@H](Cc2ccccc2)C(=O)N[C@H]1COCc1ccccc1 | inactive | Non-Toxic | inactive | inactive |
| CC(C)[C@@H]1NC(=O)[C@H](Cc2ccc(OCc3ccccc3)cc2)NC1=O | inactive | Non-Toxic | inactive | inactive |
| N=C(N)N(CCC[C@@H]1NC(=O)[C@H](CCCCNC(=O)OCc2ccccc2)NC1=O)[N+](=O)[O-] | inactive | Non-Toxic | inactive | inactive |
| O=C1N[C@H](COCc2ccccc2)C(=O)N[C@H]1COCc1ccccc1 | inactive | Non-Toxic | inactive | inactive |
| CC(C)C[C@@H]1NC(=O)[C@H](C)NC1=O | inactive | Non-Toxic | inactive | inactive |
| CC(C)C[C@@H]1NC(=O)[C@H](CCCN(C(=N)N)[N+](=O)[O-])NC1=O | inactive | Non-Toxic | inactive | inactive |
| C[C@H]1NC(=O)[C@@H](Cc2ccc(OCc3ccccc3)cc2)NC1=O | inactive | Non-Toxic | inactive | inactive |
| C[C@@H]1NC(=O)[C@H](C)NC1=O | inactive | Non-Toxic | inactive | inactive |

From ChEMBL document CHEMBL4340502, “Anti-biofilm and anti-adherence properties of novel cyclic dipeptides against oral pathogens” (Bioorg Med Chem, 2019)
